Data on 6 molecules can be found in ChEMBL document CHEMBL1124164, “Synthesis and estrogen receptor selectivity of 1,1-bis(4-hydroxyphenyl)-2-(p-halophenyl)ethylenes” (J Med Chem, 1988).

Series [1] deals with T1, Estrogen receptor (Rattus norvegicus, UniProt P06211+Q62986). As to the kind of experiment: In vitro displacement of [3H]estradiol from estrogen receptor of rat uterine cystol. Format: protein assay. In general terms: Displacement assays read how much labelled ligand stays bound in the presence of the test substance.
Series [2] addresses T1, Estrogen receptor.
Description: In vitro displacement of 3 nM [3H]4-hydroxytamoxifen from estrogen receptor of rat uterine cystol
In series [3] the target is T2, Estrogen receptor (Rattus norvegicus) (UniProt P06211+Q62986). Conditions: Uterus, Cytosol.
Description: Non specific binding to estrogen receptor in rat uterine cytosol using unlabeled ligand
The species named for series [4] is Rattus norvegicus. Put plainly: Effect of Beta Glucuronidase on recovery of 3H associated with compound from rat uterus. Format: ADME, organism-based. To be noted: in vivo.
Series [5] has as its target T2, Estrogen receptor (Rattus norvegicus). Conditions: Uterus, Cytosol. This is another data set of the same source.
The subject of series [6] is Rattus norvegicus. As to the kind of experiment: Distribution of radiolabeled compound in intestinal contents of rat 4 hr after ip administration of dose; fmol equivalents per 100 mg. Format: ADME, organism-based. To be noted: in vivo.
Series [7] has as its system Rattus norvegicus. As to the kind of experiment: Distribution of radiolabeled compound in intestinal contents of rat 1 hr after ip administration of dose; fmol equivalents per 100 mg. It is filed as ADME, organism-based. Conditions: in vivo.
For series [8], the system named is Rattus norvegicus. As to the kind of experiment: Distribution of radiolabeled compound in liver of rat 1 hr after iv administration of dose; fmol equivalents per 100 mg. Format: ADME, organism-based. To be noted: in vivo.
For series [9], the target named is T2, Estrogen receptor (Rattus norvegicus). Put plainly: Ratio of specific binding to non-specific binding at rat estrogen receptor. It is filed as protein assay.
The species entered for series [10] is Rattus norvegicus. As to the kind of experiment: Effect of Beta Glucuronidase on recovery of 3H associated with compound from rat intestinal contents. It is filed as ADME, organism-based. Conditions: in vivo.
Series [11] relates to Rattus norvegicus. Put plainly: Distribution of radiolabeled compound in uterus of rat 8 hr after ip administration of dose; fmol equivalents per 100 mg. Format: ADME, organism-based. To be noted: in vivo.
Series [12] concerns Rattus norvegicus. As to the kind of experiment: Distribution of radiolabeled compound in plasma of rat 8 hr after ip administration of dose; fmol equivalents per 100 mg. Format: ADME, organism-based. Conditions: in vivo.
The species entered for series [13] is Rattus norvegicus. As to the kind of experiment: Relative recovery of 3H associated with compound from rat liver. Format: ADME, organism-based. Conditions: in vivo.
In series [14] the test system is Rattus norvegicus. Put plainly: Distribution of radiolabeled compound in liver of rat 8 hr after ip administration of dose; fmol equivalents per 100 mg. It is filed as ADME, organism-based. Conditions: in vivo.
The subject of series [15] is Rattus norvegicus. Put plainly: Distribution of radiolabeled compound in intestinal contents of rat 8 hr after ip administration of dose; fmol equivalents per 100 mg. Conditions: in vivo. Format: ADME, organism-based.
Series [16] has as its system Rattus norvegicus. As to the kind of experiment: Distribution of radiolabeled compound in plasma of rat 4 hr after ip administration of dose; fmol equivalents per 100 mg. It is filed as ADME, organism-based. Conditions: in vivo.
Series [17] is filed under the species Rattus norvegicus. Put plainly: Relative recovery of 3H associated with compound from rat Intestinal contents. Format: ADME, organism-based. Conditions: in vivo.
Series [18] concerns Rattus norvegicus. Put plainly: Distribution of radiolabeled compound in uterus of rat 4 hr after ip administration of dose; fmol equivalents per 100 mg. It is filed as ADME, organism-based. To be noted: in vivo.
The test system of series [19] is Rattus norvegicus. As to the kind of experiment: Distribution of radiolabeled compound in plasma of rat 1 hr after iv administration of dose; fmol equivalents per 100 mg. It is filed as ADME, organism-based. To be noted: in vivo.
Series [20] is filed under the species Rattus norvegicus. As to the kind of experiment: Effect of Beta Glucuronidase on recovery of 3H associated with compound from rat plasma. Format: ADME, organism-based.
For series [21], the system named is Rattus norvegicus. As to the kind of experiment: Distribution of radiolabeled compound in plasma of rat 1 hr after ip administration of dose and excess 8 microg of estradiol; fmol equivalents per 100 mg. It is filed as ADME, organism-based. To be noted: in vivo.
For series [22], the system named is Rattus norvegicus. Put plainly: Distribution of radiolabeled compound in liver of rat 1 hr after ip administration of dose; fmol equivalents per 100 mg. It is filed as ADME, organism-based. Conditions: in vivo.
The subject of series [23] is Rattus norvegicus. Put plainly: Distribution of radiolabeled compound in intestinal contents of rat 1 hr after iv administration of dose; fmol equivalents per 100 mg. Format: ADME, organism-based. To be noted: in vivo.
For series [24], the species on record is Rattus norvegicus. Put plainly: Relative recovery of 3H associated with compound from rat uterus. To be noted: in vivo. It is filed as ADME, organism-based.
The subject of series [25] is Rattus norvegicus. Put plainly: Distribution of radiolabeled compound in uterus of rat 1 hr after ip administration of dose and excess 8 microg of estradiol; fmol equivalents per 100 mg. It is filed as ADME, organism-based. To be noted: in vivo.
The species entered for series [26] is Rattus norvegicus. Put plainly: Relative recovery of 3H associated with compound from rat plasma. Format: ADME, organism-based.
Series [27] has as its system Rattus norvegicus. As to the kind of experiment: Distribution of radiolabeled compound in liver of rat 4 hr after ip administration of dose; fmol equivalents per 100 mg. It is filed as ADME, organism-based. Conditions: in vivo.
For series [28], the system named is Rattus norvegicus. As to the kind of experiment: Distribution of radiolabeled compound in plasma of rat 1 hr after ip administration of dose. It is filed as ADME, organism-based. Conditions: in vivo.
Series [29] concerns Rattus norvegicus. Put plainly: Distribution of radiolabeled compound in uterus of rat 1 hr after iv administration of dose; fmol equivalents per 100 mg. Format: ADME, organism-based. To be noted: in vivo.
In series [30] the test system is Rattus norvegicus. Put plainly: Distribution of radiolabeled compound in intestinal contents of rat 1 hr after ip administration of dose and excess 8 microg of estradiol; fmol equivalents per 100 mg. Format: ADME, organism-based. To be noted: in vivo.
Series [31] deals with Rattus norvegicus. Put plainly: Distribution of radiolabeled compound in uterus of rat 1 hr after ip administration of dose; fmol equivalents per 100 mg. It is filed as ADME, organism-based. To be noted: in vivo.
In series [32] the test system is Rattus norvegicus. As to the kind of experiment: Distribution of radiolabeled compound in liver of rat 1 hr after ip administration of dose and excess 8 microg of estradiol; fmol equivalents per 100 mg. Format: ADME, organism-based. Conditions: in vivo.
For series [33], the species on record is Rattus norvegicus. As to the kind of experiment: Effect of Beta Glucuronidase on recovery of 3H associated with compound from rat liver. Format: ADME, organism-based. To be noted: in vivo.
Series [34] deals with T2, Estrogen receptor (Rattus norvegicus).
Description: Non specific binding to estrogen receptor in rat uterine cytosol(+/-SD)
For series [35] the target is unchanged. This is another data set of the same source.
Description: Specific binding to estrogen receptor in rat uterine cytosol(+/-SD)
For series [36] the target is unchanged. The source holds these as a separate data set.

For orientation: EC50 means the midpoint of the concentration-response curve. A lower EC50 goes with greater potency. In the case of `Oc1ccc(C(=Cc2ccc(I)cc2)c2ccc(O)cc2)cc1`, the EC50 at Estrogen receptor [1] was determined as 3.3 nM; at Estrogen receptor [2] it was 9.5 nM.
With `Oc1ccc(C(=Cc2ccc(F)cc2)c2ccc(O)cc2)cc1`, the values for the Binding in [3] and in series [5] were 305 fM uterus-1 and 971 fM uterus-1, respectively. The Recovery is given as 95.9% in the series filed under Rattus norvegicus [4]; 95.4% in the series listed under Rattus norvegicus [10]; 15.7% in the series listed under Rattus norvegicus [13]; 5.3% in the series listed under Rattus norvegicus [17]; 92.1% in the series filed under Rattus norvegicus [20]; 84.5% in the series filed under Rattus norvegicus [24]. For the same molecule, the figures for the Recovery in the series listed under Rattus norvegicus [26] and in the series filed under Rattus norvegicus [33] were 28.7% and 75.9%, respectively. Further, the Distribution in the series on Rattus norvegicus [6] came out at 834 fM/mg; in the series with Rattus norvegicus [7], 2360 fM/mg; with Rattus norvegicus [8] it was 318 fM/mg; in the series with Rattus norvegicus [11], 87 fM/mg; in the series on Rattus norvegicus [12] it was 46 fM/mg; with Rattus norvegicus [14], 61 fM/mg. Also, the Distribution is 665 fM/mg in the series with Rattus norvegicus [15]; 56 fM/mg in the series with Rattus norvegicus [16]; 196 fM/mg in the series with Rattus norvegicus [18]; 144 fM/mg in the series with Rattus norvegicus [19]; 198 fM/mg with Rattus norvegicus [21]; 251 fM/mg with Rattus norvegicus [22]. The Distribution came to 3269 fM/mg in the series with Rattus norvegicus [23]; 302 fM/mg in the series on Rattus norvegicus [25]; 97 fM/mg in the series with Rattus norvegicus [27]; 122 fM/mg with Rattus norvegicus [28]; 429 fM/mg with Rattus norvegicus [29]; 880 fM/mg in the series with Rattus norvegicus [30]. Moreover, the values for the Distribution with Rattus norvegicus [31] and in the series on Rattus norvegicus [32] were 496 fM/mg and 373 fM/mg, respectively. Moreover, in [9], the S/N was 3.2. Also, the EC50 on Estrogen receptor [1] was 2.9 nM; at Estrogen receptor [2] it was 170 nM.
For the molecule `Oc1ccc(C(=Cc2ccc(Br)cc2)c2ccc(O)cc2)cc1`, at Estrogen receptor [1], the EC50 is on record as 10.4 nM.
Molecule `Oc1ccc(C(=C(Cl)c2ccccc2)c2ccc(O)cc2)cc1` gave an EC50 at Estrogen receptor [1] of 4.5 nM.
With `CCC(=C(c1ccc(O)cc1)c1ccc(OCCN(C)C)cc1)c1ccccc1`, the Binding in [34] is 475 fM uterus-1; in series [35], 1080 fM uterus-1. For the same molecule, in series [36], the S/N was 2.3. In addition, at Estrogen receptor [2], the EC50 turned out to be 6 nM.
As for `Oc1ccc(C(=Cc2ccccc2)c2ccc(O)cc2)cc1`, the EC50 at Estrogen receptor [1] is 3.2 nM.
